The conditions of series [1]: oral administration; cited from earlier work.
For series [2] the following is noted: pH values ranging from 1.2 to 7.0; cited from earlier work.
Series [3] in a line: Dissolution test, release of probucol (USP Type II paddle, purified water). The class given is physicochemical. Particulars: after / through 24 hours. How it is done:
A dissolution test was conducted on the compositions using purified water, USP, as the dissolution medium in a dissolution volume of 900 ml. A USP Type II paddle apparatus was used to mix the dissolution medium at a paddle speed of 75 rpm. The bath temperature was 37° C., and a 10-μm porous filter was used to sample aliquots.
A dissolution test was conducted on Example Compositions D-H using purified water, USP, as the dissolution medium in a dissolution volume of 900 ml. A USP Type II paddle apparatus was used to mix the dissolution medium at a paddle speed of 75 rpm. The bath temperature was 37° C., and a 10-μm porous filter was used to sample aliquots.

The source of these data is US12582605B2, “Extended release formulations of cannabinoids” (Glatt GmbH, priority 2018, dated 2026).

Take `CCCCCc1cc(O)c2c(c1)OC(C)(C)[C@@H]1CCC(C)=C[C@@H]21` [THC, Δ9-tetrahydrocannabinol]: in series [1], the duration of action was 2 to 4 h and the “duration of psychoactive action” value is 4 to 6 h.
In the case of `CCCCCCC(C)(C)c1cc(O)c2c(c1)OC(C)(C)C1CCC(=O)CC21` (stereo not shown) [nabilone], the “solubility in aqueous media” value in series [2] is reported as “less than 0.5 mg/L”.
Consider Tween® 80, for which, in series [3], the “drug release (probucol)” value turned out to be 88 % w/w.
